Data set [1] deals with Nrf2-mediated oxidative stress response pathway (ARE) in AREc32 cells. Briefly: cells. The settings on record: Arec32, 24 h, read-out: Oxidative stress response ECIR1.5 (M).
The test system of data set [2] is AREc32 cells. In words: Cytotoxicity with ImageXpress high-content imaging, MitoOxTox.
The subject of data set [3] is AREc32 cells. In words: Cytotoxicity (cell confluency) with IncuCyte S3 live cell imaging, MitoOxTox.
Data set [4] concerns mitochondrial membrane potential (MMP) in AREc32 cells. In words: Disruption of mitochondrial membrane potential (m-MPI red/green ratio), MitoOxTox. The settings on record: for SRcytotoxicity: specificity ratio of MMP effect: IC10 (ImageXpress)/EC10 (eq 4).
For data set [5] the following is noted: experimental; ref PhysPropNCCT; cited from earlier work.
[6] abbreviates: 10% reduction in cell viability, AREc32, 24 h exposure.
Setting [7] is: logarithm of IC10, AREc32, 24 h exposure, Corning plates.
[8] abbreviates: 10% reduction of MMP, AREc32, 24 h exposure.
Setting [9] is: logarithm of EC10, AREc32, 24 h exposure.

Structures are written as SMILES. Where two headings read alike, the source gives them in different places.

Results on nine compounds are retold here after publication PMC10993414, “Water Quality Monitoring with the Multiplexed Assay MitoOxTox for Mitochondrial Toxicity, Oxidative Stress Response, and Cytotoxicity in AREc32 Cells” (Environmental Science & Technology, 2024).

On to `Cc1nc(C(F)(F)F)c(C(=O)Nc2c(Br)cc(OC(F)(F)F)cc2Br)s1` [Thifluzamide], for which the EC (induction ratio 1.5) in data set [1] is over 3.16e-05 M. For the same compound, the “Cytotoxicity ImageExpress IC10” value in data set [2] (setting [6]) was 23.4 µM. The “Cytotoxicity ImageExpress log(IC10 (M))” value in data set [2] (setting [7]) is -4.63 M. Also, the “Cytotoxicity Incucyte IC10” value in data set [3] (setting [6]) was 11.3 µM. For the same compound, the “MMP inhibition EC10” value in data set [4] (setting [8]) amounted to 2.92 µM. In addition, the “MMP inhibition log(EC10 (M))” value in data set [4] (setting [9]) is recorded as -5.53 M. Besides, in data set [4], the SRcytotoxicity worked out at 8.0.

For the compound `CC1(C)CNC(=NN=C(/C=C/c2ccc(C(F)(F)F)cc2)/C=C/c2ccc(C(F)(F)F)cc2)NC1` [Hydramethylnon], in data set [1], the EC (induction ratio 1.5) is over 4.04e-05 M. The “Cytotoxicity ImageExpress IC10” value in data set [2] (setting [6]) worked out at 1.11 µM. Also, the “Cytotoxicity ImageExpress log(IC10 (M))” value in data set [2] (setting [7]) was -5.96 M. Besides, the “Cytotoxicity Incucyte IC10” value in data set [3] (setting [6]) is 0.878 µM. Also, the “MMP inhibition EC10” value in data set [4] (setting [8]) was 4.29 µM. Further, the “MMP inhibition log(EC10 (M))” value in data set [4] (setting [9]) is given as -5.37 M.

For `Cc1cc(O)ccc1Cl` [4-Chloro-3-methylphenol], in data set [2], the “Cytotoxicity ImageExpress IC10” value came to 161 µM and the “Cytotoxicity ImageExpress log(IC10 (M))” value was -3.79 M. In addition, the “Cytotoxicity Incucyte IC10” value in data set [3] amounted to 111 µM. Further, in data set [4], the “MMP inhibition EC10” value is 13.5 µM and the “MMP inhibition log(EC10 (M))” value is -4.87 M.

Turning to `N#CC(C#N)=NNc1cccc(Cl)c1` [Carbonyl cyanide 3-chlorophenyl-hydrazone], in data set [1], the EC (induction ratio 1.5) is over 0.000355 M. Further, in data set [5], the “log Kow [L/L]” value is on record as 3.38 L/L. The “Cytotoxicity ImageExpress IC10” value in data set [2] (setting [6]) was 2.31 µM. The “Cytotoxicity ImageExpress log(IC10 (M))” value in data set [2] (setting [7]) is -5.64 M. Moreover, the “Cytotoxicity Incucyte IC10” value in data set [3] (setting [6]) turned out to be 1.28 µM. In addition, the “MMP inhibition EC10” value in data set [4] (setting [8]) was 0.247 µM. The “MMP inhibition log(EC10 (M))” value in data set [4] (setting [9]) was -6.61 M. Also, the SRcytotoxicity in data set [4] came to 9.4.

In the case of `CO/N=C(/C1=NOCCO1)c1ccccc1Oc1ncnc(Oc2ccccc2Cl)c1F` [Fluoxastrobin], the EC (induction ratio 1.5) in data set [1] is over 0.000153 M. In data set [2] (setting [6]), the “Cytotoxicity ImageExpress IC10” value is over 153 µM. Further, the “Cytotoxicity ImageExpress log(IC10 (M))” value in data set [2] (setting [7]) is on record as “no cytotoxicity”. Besides, in data set [3] (setting [6]), the “Cytotoxicity Incucyte IC10” value is 52.1 µM. In addition, the “MMP inhibition EC10” value in data set [4] (setting [8]) was 6.05 µM. Moreover, the “MMP inhibition log(EC10 (M))” value in data set [4] (setting [9]) is -5.22 M.

As to `CCCCCC[C@H]1C(=O)O[C@H](C)[C@H](NC(=O)c2cccc(NC=O)c2O)C(=O)O[C@@H](C)[C@@H]1OC(=O)CC(C)C` [Antimycin A], in data set [1], the EC (induction ratio 1.5) is over 0.000129 M. In addition, in data set [2] (setting [6]), the “Cytotoxicity ImageExpress IC10” value amounted to 43.4 µM. Also, in data set [2] (setting [7]), the “Cytotoxicity ImageExpress log(IC10 (M))” value is -4.36 M. In data set [3] (setting [6]), the “Cytotoxicity Incucyte IC10” value was determined as 35.9 µM. For the same compound, the “MMP inhibition EC10” value in data set [4] (setting [8]) was determined as 0.000755 µM. Besides, in data set [4] (setting [9]), the “MMP inhibition log(EC10 (M))” value is reported as -9.12 M.

For `CCOCCc1ccc(OCCN=c2[nH]cnc(CC)c2Cl)c(C)c1C` [Pyrimidifen], in data set [1], the EC (induction ratio 1.5) was over 0.000136 M. In addition, in data set [2] (setting [6]), the “Cytotoxicity ImageExpress IC10” value was found to be 56.1 µM. For the same compound, in data set [2] (setting [7]), the “Cytotoxicity ImageExpress log(IC10 (M))” value is reported as -4.25 M. Besides, the “Cytotoxicity Incucyte IC10” value in data set [3] (setting [6]) was found to be 55.3 µM. The “MMP inhibition EC10” value in data set [4] (setting [8]) is 0.00271 µM. The “MMP inhibition log(EC10 (M))” value in data set [4] (setting [9]) was -8.57 M. Moreover, in data set [4], the SRcytotoxicity worked out at 20693.

As for `Cc1nn(C)c(Oc2ccccc2)c1C=NOCc1ccc(C(=O)OC(C)(C)C)cc1` [Fenpyroximate], the “MMP inhibition EC10” value in data set [4] (setting [8]) amounted to 0.00069 µM. Moreover, the “MMP inhibition log(EC10 (M))” value in data set [4] (setting [9]) is recorded as -9.16 M.

`COc1ccc2cc3[n+](cc2c1OC)CCc1cc2c(cc1-3)OCO2` [Berberine]: the EC (induction ratio 1.5) in data set [1] was over 0.000135 M. Moreover, in data set [2] (setting [6]), the “Cytotoxicity ImageExpress IC10” value was found to be 72.4 µM. Further, the “Cytotoxicity ImageExpress log(IC10 (M))” value in data set [2] (setting [7]) is given as -4.14 M. For the same compound, the “Cytotoxicity Incucyte IC10” value in data set [3] (setting [6]) worked out at 63.5 µM. Also, the “MMP inhibition EC10” value in data set [4] (setting [8]) was 0.0135 µM. For the same compound, the “MMP inhibition log(EC10 (M))” value in data set [4] (setting [9]) is -7.87 M. The SRcytotoxicity in data set [4] amounted to 5365.
